# Values joined by “and” are separate entries in the source; they are usually repeats but may differ in a detail not shown here. Equal values may be shown once.
# Test system: hepatitis B virus
# Experiment: Oral FIAU in immune-competent patients with chronic hepatitis B: HBV DNA and HBV DNA polymerase
# Format: in vivo, human
# Settings: for Number HBeAg-negative at latest follow-up: 6 patients with 1 month follow-up
# Experimental: To assess the antiviral activity of FIAU against hepatitis B virus, up to 24 patients with chronic hepatitis B will be treated with oral FIAU in doses of 0.05, 0.10, 0.25 or 0.50 mg/kg-day in three divided doses daily for four weeks. Six patients, of which only three can be previous interferon failures, will be initially dosed at 0.10 mg/kg-day. Depending on tolerance and efficacy, the next six patients will be entered at 0.05 or 0.25 mg/kg-day.
# This study is an open and uncontrolled evaluation of oral FIAU in the treatment of chronic hepatitis B. Up to four dose cohorts of six patients each will be sequentially studied starting at 0.10 mg/kg-day. Patients will take the medication three times per day for four weeks. Depending on efficacy and tolerance, the next dose cohort will be either 0.05 or 0.25 mg/kg-day.
# Patients who meet the eligibility criteria will start on therapy, generally as outpatients one to two weeks after the in-hospital evaluation. Up to four doses will be sequentially evaluated. The initial six patients will receive 0.10 mg/kg-day for four weeks.
# If tolerance is adequate at 0.10 mg/kg-day, six patients will receive 0.25 mg/kg-day for four weeks. The final six patients will receive 0.50 mg/kg-day for four weeks if needed for better efficacy and if tolerance has been adequate at the lower doses.
# The FIAU will be administered by mouth in three equally divided doses daily. FIAU is provided as a 1 mg/ml syrup. Patients will be instructed on how to measure and self-administer the FIAU solution using oral dosing syringes. Dosing compliance will be monitored by measuring the residual FIAU solution returned at the weekly outpatient visit.
# Activity of FIAU against hepatitis B virus will be assessed by monitoring levels of HBV DNA. An inhibition of HBV DNA activity of at least about 50% by the fourth week of treatment will be considered significant antiviral activity. The dose levels of FIAU will be compared based upon the degree of inhibition of serum levels of HBV DNA.
# [1] = 0.1 mpk, Day 1 (initial level), individual patients 1A-6A
# [2] = 0.1 mpk, Day 3, individual patients 1A-6A
# [3] = 0.1 mpk, Day 8, individual patients 1A-6A
# [4] = 0.1 mpk, Week 2, individual patients 1A-6A
# [5] = 0.1 mpk, Week 3, individual patients 1A-6A
# [6] = 0.1 mpk, Week 4, individual patients 1A-6A
# [7] = 0.1 mpk, Week 5 (after 4-week treatment), individual patients 1A-6A
# [8] = 0.25 mpk, Day 1 (initial level), individual patients 1B-6B
# [9] = 0.25 mpk, Day 3, individual patients 1B-6B
# [10] = 0.25 mpk, Day 8, individual patients 1B-6B
# [11] = 0.25 mpk, Week 2, individual patients 1B-6B
compound,measurement,setting,value
"O=c1[nH]c(=O)n([C@@H]2O[C@H](CO)[C@@H](O)[C@@H]2F)cc1I [FIAU, 1-(2'-deoxy-2'-fluoro-β-D-arabinofuranosyl)-5-iodouracil]",mean reduction of HBV DNA serum level from initial levels at Week 4,0.05 mpk,30%
same,Number HBeAg-negative at latest follow-up,0.05 mpk,0
same,HBV DNA Polymerase (cpm),"0.05 mpk, Day 1 (initial level), individual patients 1C, 2C","1,318 cpm and 3,365 cpm"
same,HBV DNA Polymerase (cpm),"0.05 mpk, Day 3, individual patients 1C, 2C","748 cpm and 1,509 cpm"
same,HBV DNA Polymerase (cpm),"0.05 mpk, Day 8, individual patients 1C, 2C",348 cpm and 908 cpm
same,Mean % change of HBV DNA at Week 4 of FIAU,"0.05 mpk, n = 4",-31%
same,mean reduction of HBV DNA serum level from initial levels at Week 4,0.1 mpk,88%
same,Number HBeAg-negative at latest follow-up,0.1 mpk,0
same,HBV DNA,[1],68.1 pg/mL and 306.2 pg/mL and 307.7 pg/mL and 18.1 pg/mL and 71.3 pg/mL and 172.6 pg/mL
same,HBV DNA Polymerase (cpm),[1],"1208 cpm and 3340 cpm and 3,000 cpm and 1,500 cpm and 1,174 cpm"
same,HBV DNA,[2],23.2 pg/mL and 110.6 pg/mL and 208.7 pg/mL and 12.3 pg/mL and 27.8 pg/mL and 75.6 pg/mL
same,HBV DNA Polymerase (cpm),[2],"348 cpm and 721 cpm and 1,550 cpm and 440 cpm and 251 cpm and 610 cpm"
same,HBV DNA,[3],16.8 pg/mL and 100.1 pg/mL and 178.8 pg/mL and 8.8 pg/mL and 9.7 pg/mL and 27.6 pg/mL
same,HBV DNA Polymerase (cpm),[3],119 cpm and 550 cpm and 843 cpm and 164 cpm and 145 cpm and 169 cpm
same,HBV DNA,"0.1 mpk, Month 1 (follow-up), individual patients 1A-6A",4.3 pg/mL and 4.8 pg/mL and 34.2 pg/mL and 4.4 pg/mL and 18.6 pg/mL and 138.5 pg/mL
same,HBV DNA,"0.1 mpk, Month 2 (follow-up), individual patients 1A-6A",13.8 pg/mL and 11.7 pg/mL and 58.4 pg/mL and 5.9 pg/mL and 26.1 pg/mL and 172.9 pg/mL
same,HBV DNA,[4],9.3 pg/mL and 94.5 pg/mL and 223.2 pg/mL and 7.3 pg/mL and 17.9 pg/mL and 25.2 pg/mL
same,HBV DNA Polymerase (cpm),[4],90 cpm and 507 cpm and 977 cpm and 118 cpm and 136 cpm and 142 cpm
same,HBV DNA,[5],6.4 pg/mL and 42.2 pg/mL and 122.1 pg/mL and 3.2 pg/mL and 9.0 pg/mL and 22.8 pg/mL
same,HBV DNA Polymerase (cpm),[5],144 cpm and 360 cpm and 303 cpm and 69 cpm and 86 cpm and 148 cpm
same,HBV DNA,[6],0.0 pg/mL and 31.4 pg/mL and 78.3 pg/mL and 2.5 pg/mL and 7.4 pg/mL and 21.8 pg/mL
same,HBV DNA Polymerase (cpm),[6],93 cpm and 205 cpm and 310 cpm and 74 cpm and 99 cpm and 165 cpm
same,HBV DNA,[7],4.1 pg/mL and 42.4 pg/mL and 76.1 pg/mL and 8.7 pg/mL and 21.9 pg/mL and 67.9 pg/mL
same,HBV DNA Polymerase (cpm),[7],84 cpm and 368 cpm and 657 cpm and 169 cpm and 127 cpm and 324 cpm
same,Mean % change of HBV DNA at Week 4 of FIAU,"0.1 mpk, n = 6",-88%
same,mean reduction of HBV DNA serum level from initial levels at Week 4,0.25 mpk,84%
same,"patients who ""sero-converted"" (failed to exhibit hepatitis B surface antigen)",0.25 mpk,2 of 6
same,Number HBeAg-negative at latest follow-up,0.25 mpk,2
same,HBV DNA,[8],975.8 pg/mL and 63.9 pg/mL and 799.1 pg/mL and 196.3 pg/mL and 110.3 pg/mL and 141.1 pg/mL
same,HBV DNA Polymerase (cpm),[8],"43,752 cpm and 835 cpm and 10,833 cpm and 2,752 cpm and 2,454 cpm and 7,422 cpm"
same,HBV DNA,[9],742.7 pg/mL and 23 pg/mL and 472.3 pg/mL and 103.5 pg/mL and 40.4 pg/mL and 79.9 pg/mL
same,HBV DNA Polymerase (cpm),[9],"7,841 cpm and 182 cpm and 2,115 cpm and 1,302 cpm and 506 cpm and 1,482 cpm"
same,HBV DNA,[10],718.9 pg/mL and 17.5 pg/mL and 204.2 pg/mL and 47.1 pg/mL and 15.9 pg/mL and 60.7 pg/mL
same,HBV DNA Polymerase (cpm),[10],"5,129 cpm and 81 cpm and 1,481 cpm and 213 cpm and 131 cpm and 772 cpm"
same,HBV DNA,"0.25 mpk, Month 1 (follow-up), individual patients 1B-6B",4.9 pg/mL and 23.4 pg/mL and 100.6 pg/mL and 242.5 pg/mL and 2.7 pg/mL
same,HBV DNA,[11],492.9 pg/mL and 8.0 pg/mL and 182.6 pg/mL and 32.4 pg/mL and 9.3 pg/mL and 26.6 pg/mL
same,HBV DNA Polymerase (cpm),[11],"3,395 cpm and 129 cpm and 2,752 cpm and 105 cpm and 45 cpm and 260 cpm"
same,HBV DNA Polymerase (cpm),"0.25 mpk, Week 3, individual patients 1B-3B","2,012 cpm and 63 cpm and 1,602 cpm"
same,HBV DNA,"0.25 mpk, Week 3, individual patients 1B-6B",373.2 pg/mL and 10.6 pg/mL and 68.3 pg/mL and 31.1 pg/mL and 8.3 pg/mL and 44.2 pg/mL
same,HBV DNA Polymerase (cpm),"0.25 mpk, Week 4, individual patients 1B-3B","834 cpm and 42 cpm and 1,076 cpm"
same,HBV DNA,"0.25 mpk, Week 4, individual patients 1B-6B",237.9 pg/mL and 7.2 pg/mL and 69.6 pg/mL and 34.0 pg/mL and 7.9 pg/mL and 41.7 pg/mL
same,HBV DNA,"0.25 mpk, Week 5 (after 4-week treatment), individual patients 1B-6B",376.3 pg/mL and 24.1 pg/mL and 6.4 pg/mL and 89.9 pg/mL and 6.8 pg/mL
same,Mean % change of HBV DNA at Week 4 of FIAU,"0.25 mpk, n = 6",-84%
same,reduction of the initial HBV DNA polymerase level,"within the first few days, FIG. 20",80-90%

# From patent US5432165A, “Methods for the treatment of infection caused by Hepatitis B virus (HBV)” (priority 1992, dated 1995)
